Experimental data from patent publication US7511144B2, “Reverse hydroxamic acid derivatives” (Kaken Pharmaceutical Co., Ltd., priority 2001, dated 2009).

What was measured:
Format in all cases: biochemical
Human MMP8 = biological target: T1, Human MMP8 (Homo sapiens, UniProt P22894); assay: MMP8 inhibition experiment; conditions: concentration required for 50% inhibition of enzyme activity; read-out: IC50 value MMP-8
T1 construct: purchased Calbiochem 444229
Experimental: MMP inhibition experiment may be carried out using a fluorescent synthetic substrate according to, for example, the methods of Bickett et al. (D. Mark Bickett et al., Anal. Biochem., 1993, 212, 58-64) and Nagase et al. (H. Nagase et al., J. Biol. Chem., 1994, 269, 20952-20957). The methods of inhibition experiments carried out for various MMPs are described below.
Human MMP8 (Calbiochem #444229) in amount of 90 μL (30 ng) was activated by mixing with 10 μL of 10 mM APMA, followed by reaction for 1 hour at 37° C. This enzyme solution in amount of 10 μL was diluted to 90 μL with the assay buffer A, which was added to 90 μL of […] fluorescent substrate (MOCAc-Pro-Leu-Gly-Leu-A2pr(Dnp)-Ala-Arg-NH2, Peptide Institute, Inc., #3163-v) prepared in the assay buffer B, followed by reaction for 5 hours at 37° C.

Human MMP17 = biological target: T2, Human MMP17 (Homo sapiens, UniProt Q9ULZ9); assay: MMP17 inhibition test; conditions: concentration required for 50% inhibition of enzyme activity; read-out: IC50 value MMP-17
T2 construct: purchased Calbiochem 475940
T2 sequence (Q9ULZ9 126-300 limits assumed): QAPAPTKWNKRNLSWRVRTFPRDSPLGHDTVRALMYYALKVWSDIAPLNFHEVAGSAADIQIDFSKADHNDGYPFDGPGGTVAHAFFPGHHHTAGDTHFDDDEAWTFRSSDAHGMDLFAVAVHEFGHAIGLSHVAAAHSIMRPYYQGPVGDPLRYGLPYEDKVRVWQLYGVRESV

Human MMP14 = biological target: T3, Human MMP14 (Homo sapiens, UniProt P50281); assay: MMP14 inhibition experiment; conditions: concentration required for 50% inhibition of enzyme activity; read-out: IC50 value MMP-14
T3 construct: purchased Biogenesis or Calbiochem 5980-1461 or 475935
In short: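 Fluorescence assay: substrate Dnp-Pro-Cha-Gly-Cys(Me)-His-Ala-Lys(Nma)-NH2 (20 μM before equal-volume mixing) incubated at 37° C for 5 hours with 4 ng human MMP14.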

Human MMP13 = biological target: T4, Human MMP13 (Homo sapiens, UniProt P45452); assay: MMP13 inhibition experiment; conditions: concentration required for 50% inhibition of enzyme activity; read-out: IC50 value MMP-13
T4 construct: purchased Chemicon CC068
Experimental: Human MMP13 (Chemicon #CC068) in amount of 90 μL (200 ng) was activated by mixing with 10 μL of 10 mM APMA, followed by reaction for 1 hour at 37° C. This enzyme solution in amount of 0.6 μL was diluted to 90 μL with the assay buffer A, which was added to 90 μL of 20 μM fluorescent substrate (Dnp-Pro-Cha-Gly-Cys(Me)-His-Ala-Lys(Nma)-NH2) prepared in the assay buffer B, followed by reaction for 4 hours at 37° C.

TACE = biological target: T5, TACE (Homo sapiens, UniProt P78536); assay: TACE inhibition experiment (in vitro)
T5 construct: made in house; host or cells: mammalian cells or insect cells
T5 sequence (P78536 215-824): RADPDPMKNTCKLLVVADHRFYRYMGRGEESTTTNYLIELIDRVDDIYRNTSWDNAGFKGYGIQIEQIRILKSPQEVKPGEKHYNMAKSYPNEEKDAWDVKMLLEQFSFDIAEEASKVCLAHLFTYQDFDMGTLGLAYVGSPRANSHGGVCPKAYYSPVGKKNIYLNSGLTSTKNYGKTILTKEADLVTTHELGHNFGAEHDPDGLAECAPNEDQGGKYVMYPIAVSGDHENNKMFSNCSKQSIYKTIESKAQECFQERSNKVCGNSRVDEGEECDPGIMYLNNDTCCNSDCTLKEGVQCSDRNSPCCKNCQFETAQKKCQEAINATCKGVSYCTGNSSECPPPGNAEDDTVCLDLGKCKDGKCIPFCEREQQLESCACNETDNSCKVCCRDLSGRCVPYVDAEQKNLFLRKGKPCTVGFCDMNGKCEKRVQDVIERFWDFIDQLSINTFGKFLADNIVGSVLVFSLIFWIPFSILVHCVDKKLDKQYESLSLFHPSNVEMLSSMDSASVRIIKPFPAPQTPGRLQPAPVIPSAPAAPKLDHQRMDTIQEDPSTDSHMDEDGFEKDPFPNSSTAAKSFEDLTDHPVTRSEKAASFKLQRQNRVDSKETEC

Human MMP2 = biological target: T6, Human MMP2 (Homo sapiens, UniProt P08253); assay: MMP2 inhibition experiment; conditions: concentration required for 50% inhibition of enzyme activity; read-out: IC50 value MMP-2
T6 construct: purchased Calbiochem 444213
T6 sequence (P08253 110-660): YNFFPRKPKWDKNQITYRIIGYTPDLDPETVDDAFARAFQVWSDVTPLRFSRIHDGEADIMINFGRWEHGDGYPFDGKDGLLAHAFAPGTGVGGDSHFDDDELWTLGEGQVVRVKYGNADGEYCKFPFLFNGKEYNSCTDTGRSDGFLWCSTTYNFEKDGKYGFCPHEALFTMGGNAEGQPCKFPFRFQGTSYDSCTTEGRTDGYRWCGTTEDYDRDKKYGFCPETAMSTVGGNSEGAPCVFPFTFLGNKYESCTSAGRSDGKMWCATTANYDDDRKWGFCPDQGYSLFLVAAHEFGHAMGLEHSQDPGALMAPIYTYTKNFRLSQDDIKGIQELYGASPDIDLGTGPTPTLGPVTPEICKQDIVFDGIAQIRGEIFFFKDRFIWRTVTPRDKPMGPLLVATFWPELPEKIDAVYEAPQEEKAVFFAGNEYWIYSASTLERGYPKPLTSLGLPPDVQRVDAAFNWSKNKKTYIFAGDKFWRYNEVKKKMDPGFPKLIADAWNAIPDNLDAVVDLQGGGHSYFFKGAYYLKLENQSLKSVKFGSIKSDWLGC
Experimental: This enzyme solution in amount of 10 μL was diluted to 90 μL with the assay buffer A, which was added to 90 μL of 20 μM fluorescent substrate (MOCAc((7-methoxycoumarin-4-yl)acetyl)-Pro-Leu-Gly-Leu-A2pr(Dnp)-Ala-Arg-NH2, Peptide Institute, Inc., #3163-v) prepared in the assay buffer B, followed by reaction for 5 hours at 37° C.

Human MMP3 = biological target: T7, Human MMP3 (Homo sapiens, UniProt P08254); assay: MMP3 inhibition experiment; conditions: concentration required for 50% inhibition of enzyme activity; read-out: IC50 value MMP-3
T7 construct: purchased Calbiochem 444217
T7 sequence (P08254 100-272 limits assumed): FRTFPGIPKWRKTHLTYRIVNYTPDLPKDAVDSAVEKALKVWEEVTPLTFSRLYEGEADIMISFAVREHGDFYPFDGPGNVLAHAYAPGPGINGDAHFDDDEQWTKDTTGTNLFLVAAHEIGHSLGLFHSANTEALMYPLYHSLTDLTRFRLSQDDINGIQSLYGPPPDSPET
In short: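 Recombinant human MMP3 (5 ng) mixed with fluorogenic peptide NFF-3 (20 μM stock solution) and incubated 5 hours at 37° C; cleavage followed by fluorescence of the quenched substrate.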

Human MMP1 = biological target: T8, Human MMP1 (Homo sapiens, UniProt P03956); assay: MMP1 inhibition experiment; conditions: read-out: IC50 value MMP-1
T8 construct: purchased Calbiochem 444208
T8 sequence (P03956 100-469): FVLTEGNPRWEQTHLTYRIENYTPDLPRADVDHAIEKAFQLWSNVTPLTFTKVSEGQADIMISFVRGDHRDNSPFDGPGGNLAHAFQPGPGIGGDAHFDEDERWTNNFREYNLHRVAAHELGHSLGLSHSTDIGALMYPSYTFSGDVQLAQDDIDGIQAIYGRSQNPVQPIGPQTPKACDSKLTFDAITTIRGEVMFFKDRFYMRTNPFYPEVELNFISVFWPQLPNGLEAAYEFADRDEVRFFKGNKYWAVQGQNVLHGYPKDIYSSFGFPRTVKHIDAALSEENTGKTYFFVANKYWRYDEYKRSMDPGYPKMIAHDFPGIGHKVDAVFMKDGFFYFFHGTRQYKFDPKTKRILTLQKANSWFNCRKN
Experimental: This enzyme solution in amount of 10 μL was diluted to 90 μL with the assay buffer A, which was added to 90 μL of 20 μM fluorescent substrate (Dnp-Pro-Cha(β-cyclohexylalanyl)-Gly-Cys(Me)-His-Ala-Lys(Nma)-NH2) prepared in the assay buffer B, followed by reaction for 5 hours at 37° C.

Human MMP9 = biological target: T9, Human MMP9 (Homo sapiens, UniProt P14780); assay: MMP9 inhibition experiment; conditions: read-out: IC50 value MMP-9
T9 construct: purchased Calbiochem 444231
T9 sequence (P14780 107-707 limits assumed): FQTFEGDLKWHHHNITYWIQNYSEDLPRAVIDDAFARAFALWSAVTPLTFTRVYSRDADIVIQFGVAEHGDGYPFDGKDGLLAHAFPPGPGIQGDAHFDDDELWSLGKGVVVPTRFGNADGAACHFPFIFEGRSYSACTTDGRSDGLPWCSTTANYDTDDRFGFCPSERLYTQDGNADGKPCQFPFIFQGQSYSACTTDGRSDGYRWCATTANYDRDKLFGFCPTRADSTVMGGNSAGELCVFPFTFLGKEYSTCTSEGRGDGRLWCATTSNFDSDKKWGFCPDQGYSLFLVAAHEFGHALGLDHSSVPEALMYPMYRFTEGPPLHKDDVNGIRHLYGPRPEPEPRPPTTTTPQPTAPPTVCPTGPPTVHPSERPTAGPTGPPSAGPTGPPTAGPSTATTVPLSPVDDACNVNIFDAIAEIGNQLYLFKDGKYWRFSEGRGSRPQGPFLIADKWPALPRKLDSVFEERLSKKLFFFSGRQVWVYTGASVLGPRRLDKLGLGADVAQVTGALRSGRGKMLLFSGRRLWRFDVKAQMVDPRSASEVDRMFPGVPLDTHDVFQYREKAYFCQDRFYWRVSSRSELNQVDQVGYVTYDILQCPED
Experimental: This enzyme solution in amount of 1 μL was diluted to 90 μL with the assay buffer A, which was added to 90 μL of 20 μM fluorescent substrate (Dnp-Pro-Cha-Gly-Cys(Me)-His-Ala-Lys(Nma)-NH2) prepared in the assay buffer B, followed by reaction for 4 hours at 37° C.

T1 sequence (P22894 101-467): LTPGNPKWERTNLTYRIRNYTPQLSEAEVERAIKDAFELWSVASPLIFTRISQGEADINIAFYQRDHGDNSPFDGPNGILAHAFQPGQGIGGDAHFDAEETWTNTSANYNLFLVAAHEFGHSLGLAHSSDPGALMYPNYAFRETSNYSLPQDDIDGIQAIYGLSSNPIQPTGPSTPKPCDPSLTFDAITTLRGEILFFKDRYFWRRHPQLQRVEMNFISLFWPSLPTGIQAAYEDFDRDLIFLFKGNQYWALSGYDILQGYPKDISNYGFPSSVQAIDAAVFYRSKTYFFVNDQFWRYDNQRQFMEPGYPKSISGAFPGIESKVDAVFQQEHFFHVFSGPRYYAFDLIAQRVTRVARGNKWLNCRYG

Compound	IC50 (Human MMP8) [µM]	IC50 (Human MMP17) [nM]	IC50 (Human MMP14) [µM]	IC50 (Human MMP13) [µM]	IC50 (TACE) [nM]	IC50 (Human MMP2) [µM]	IC50 (Human MMP3) [nM]	IC50 (Human MMP1) [µM]	IC50 (Human MMP9) [µM]
O=CN(O)C(C=C1CCC2(CC1)OCCO2)CS(=O)(=O)c1ccc(OCc2ccc3ccccc3n2)cc1 (stereo not drawn) [Example I-83]	> 100	36000	55	23	2500	7	37000	> 100	53
CCC(CC)C(=O)N1CCC(=CC(CS(=O)(=O)c2ccc(OCc3cc(C)nc4ccccc34)cc2)N(O)C=O)C(C)C1 (stereo not drawn) [Example I-63]	60	2200	65	32	2	30	2400	64	75
Cc1cc(COc2ccc(S(=O)(=O)CC(C=C3CCN(Cc4ccccc4)CC3)N(O)C=O)cc2)c2ccccc2n1 (stereo not drawn) [Example I-45]	5	270	9	2	5	1	260	85	40
Cc1cc(COc2ccc(S(=O)(=O)CC(CC3CCN(S(C)(=O)=O)CC3)N(O)C=O)cc2)c2ccccc2n1 (stereo not drawn) [Example I-70]	22	1900	92	30	11	11	1300	> 100	> 100
CCC(CC)C(=O)N1CCC(CC(CS(=O)(=O)c2ccc(OCc3cc(C)nc4ccccc34)cc2)N(O)C=O)CC1 (stereo not drawn) [Example I-51]	7.6	400	40	5.8	10	3.2	350	60	37
Cc1cc(COc2ccc(S(=O)(=O)CC(C3CCOCC3)N(O)C=O)cc2)c2ccccc2n1 (stereo not drawn) [Example I-49]	9	610	90	30	13	24	2000	> 100	> 100
CC(=O)N1CCC(C(CS(=O)(=O)c2ccc(OCc3cc(C)nc4ccccc34)cc2)N(O)C=O)CC1 (stereo not drawn) [Example I-73]	18	660	> 100	50	14	26	1700	> 100	> 100
Cc1cc(COc2ccc(S(=O)(=O)CC(C=C3CCN(C=O)CC3)N(O)C=O)cc2)c2ccccc2n1 (stereo not drawn) [Example I-43]	52	4500	> 100	65	3.1	50	11000	> 100	> 100
COCc1cc(COc2ccc(S(=O)(=O)CC(CC3CCC(=NO)CC3)N(O)C=O)cc2)cc(C)n1 (stereo not drawn) [Example I-122]	14	18000	> 100	12	200	9	21000	> 100	> 100
CCC(CC)CN1CCC(=CC(CS(=O)(=O)c2ccc(OCc3cc(C)nc4ccccc34)cc2)N(O)C=O)CC1 (stereo not drawn) [Example I-44]	42	1100	60	20	7.8	6.5	3000	> 100	> 100
CCN1CCC(=CC(CS(=O)(=O)c2ccc(OCc3cc(C)nc4ccccc34)cc2)N(O)C=O)CC1 (stereo not drawn) [Example I-30]	> 100	8000	> 100	> 100	12	83	24000	> 100	> 100
Cc1ccc2nc(C)cc(COc3ccc(S(=O)(=O)CC(c4ccccc4C)N(O)C=O)cc3)c2c1 (stereo not drawn) [Example I-77]	> 100	7500	55	28	26	71	3000	74	80
Cc1cc(COc2ccc(S(=O)(=O)CC(CCC3=CCCC(OC=O)C3)N(O)C=O)cc2)c2ccccc2n1 (stereo not drawn) [Example I-38]	46	2200	50	22	12	12	2000	57	54
Cc1ccc(CCC(CS(=O)(=O)c2ccc(OCc3cc(C)nc4ccccc34)cc2)N(O)C=O)cc1 (stereo not drawn) [Example I-36]	68	20000	37	20	170	6	9700	70	43
Cc1cncc(C(CS(=O)(=O)c2ccc(OCc3cc(C)nc4c(F)cccc34)cc2)N(O)C=O)c1 (stereo not drawn) [Example I-150]	27	2400	58	18	2.5	34	4000	> 100	> 100
Cc1ccccc1C(CS(=O)(=O)c1ccc(OCc2ccc3ccccc3n2)cc1)N(O)C=O (stereo not drawn) [Example I-82]	> 100	30000	38	26	3500	4.2	50000	92	32
CCC(CC)C(=O)N1CCC(C(CS(=O)(=O)c2ccc(OCc3cc(C)nc4ccccc34)cc2)N(O)C=O)CC1 (stereo not drawn) [Example I-132]	8	85	16	2.2	23	2.2	210	53	40
Cc1ccc(C(CS(=O)(=O)c2ccc(OCc3cc(C)nc4ccc(F)cc34)cc2)N(O)C=O)cn1 (stereo not drawn) [Example I-81]	20	8000	64	17	5.1	11	2200	> 100	> 100
